Laboratory results taken from US6509365B1, “2-phenylbenzimidazoles and 2-phenylindoles, and production and use thereof” (BASF Aktiengesellschaft, priority 1998, dated 2003).

How the values were obtained:
[1] = Determination of the water solubility; assay type: physicochemical; details: pH 5 to 6 adjusted with sodium acetate solution, DMSO ≦1% if not a water-soluble salt
Description: A compound to be measured is dissolved directly in a specified volume of water and the resulting solution is adjusted to pH 5 to 6 using a sodium acetate solution so that the concentration of the active compound to be tested is achieved. If the measured substance is not present as a water-soluble salt, this was dissolved in as little dimethyl sulfoxide as possible and then diluted with water (final concentration of dimethyl sulfoxide ≦1%), after which the pH was additionally adjusted here too.

[2] = molecular target: T1, PARP enzyme present in the cells (human cell line C4I) (Homo sapiens, UniProt P09874); assay: Test of PARP inhibitors in a cellular assay (H2O2-induced PAR formation, immunofluorescence); assay type: cell-based; details: 1 mM hydrogen peroxide, FITC signal standardized to DAPI
T1 construct: endogenous in cells; host or cells: human cell line C4I
Description: To test the action of PARP inhibitors, eukaryotic cell lines are treated with chemicals such that the DNA of the cell line is damaged and as a result the PARP enzyme present in the cells is activated. Due to the activation of the enzyme, chains of poly-ADP-ribose (PAR) are formed on proteins. These chains are bound by a specific antibody. This is in turn bound by a second antibody which is provided with a fluorescent label. The fluorescence is measured using a fluorescence scanner and behaves proportionately to the activity of the enzyme PARP. PARP inhibitors can be recognized by a weakening of the fluorescence signal. In order to prevent adulterations of the results by different cell counts, the DNA of the cells is labeled with a further dye and its fluorescence is likewise determined in the fluorescence scanner.
400,000 cells of the human cell line C4I are incubated at 37° C., 5% CO2 with 10% fetal bovine serum in RPMI medium in cell culture plates having 24 cavities until a thick cell lawn is obtained. The cells are washed with DMEM and the PARP inhibitors to be tested are added in various concentrations in DMEM. After incubation for 20 min at 37° C., a concentration of 1 mM is established using hydrogen peroxide and the mixture is incubated at 37° C. for a further 10 min. For the control, cells in some cavities are not treated with hydrogen peroxide (no PARP activation) or receive no inhibitor (maximal PARP activation). The cells are washed once with PBS and fixed at −20° C. for 10 min by addition of methanol/acetone mixture which is precooled to −20° C. (7 parts methanol, 3 parts acetone). The cells are then dried, rehydrated at room temperature for 10 min by addition of PBS, and nonspecific binding sites are blocked for 30 min at room temperature in PBS with 0.05% Tween 20 and 5% dried milk powder. […] The FITC and DAPI fluorescence is measured at several sites in the cavities with the aid of a fluorescence scanner. […] The IC50 values are calculated by semilogarithmic plotting of the standardized values of the various inhibitor concentrations.

circulatory shock = details: S. Cuzzocrea et al., Br. J. Pharmacol. 1997; cited from earlier work

T1 sequence (P09874 whole entry): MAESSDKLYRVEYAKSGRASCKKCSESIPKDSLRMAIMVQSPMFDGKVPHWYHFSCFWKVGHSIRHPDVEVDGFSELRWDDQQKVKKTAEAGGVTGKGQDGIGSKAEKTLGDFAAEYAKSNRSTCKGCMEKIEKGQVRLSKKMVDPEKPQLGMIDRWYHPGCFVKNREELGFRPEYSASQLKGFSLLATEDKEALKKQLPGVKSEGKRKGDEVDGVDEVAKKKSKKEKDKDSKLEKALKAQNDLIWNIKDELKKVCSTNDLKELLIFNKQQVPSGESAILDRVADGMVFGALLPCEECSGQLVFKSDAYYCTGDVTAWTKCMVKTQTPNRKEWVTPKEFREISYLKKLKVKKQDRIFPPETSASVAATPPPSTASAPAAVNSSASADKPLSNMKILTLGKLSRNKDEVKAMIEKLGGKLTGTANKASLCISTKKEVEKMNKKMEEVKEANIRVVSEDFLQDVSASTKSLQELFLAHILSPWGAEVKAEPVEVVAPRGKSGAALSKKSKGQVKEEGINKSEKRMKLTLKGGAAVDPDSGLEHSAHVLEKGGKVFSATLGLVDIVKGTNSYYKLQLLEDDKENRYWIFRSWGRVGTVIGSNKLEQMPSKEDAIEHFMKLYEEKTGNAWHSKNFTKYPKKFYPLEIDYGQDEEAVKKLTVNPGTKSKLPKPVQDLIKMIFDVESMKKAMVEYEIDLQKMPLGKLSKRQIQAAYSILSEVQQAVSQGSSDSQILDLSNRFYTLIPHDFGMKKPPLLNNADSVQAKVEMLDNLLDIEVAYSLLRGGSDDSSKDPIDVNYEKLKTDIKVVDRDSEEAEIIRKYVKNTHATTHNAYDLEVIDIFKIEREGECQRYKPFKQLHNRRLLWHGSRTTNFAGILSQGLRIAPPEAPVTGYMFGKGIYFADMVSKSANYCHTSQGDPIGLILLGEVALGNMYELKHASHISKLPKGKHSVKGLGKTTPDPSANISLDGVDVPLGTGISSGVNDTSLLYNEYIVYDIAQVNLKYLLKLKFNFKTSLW

IC50 [2] [nM] | SMILES | also measured
– | COc1ccc(-c2nc3cccc(C(N)=O)c3[nH]2)cc1 [NU 1076] | solubility [1]: < 0.01%
118 | CN(C)CCc1cc(-c2nc3c(C(N)=O)cccc3[nH]2)ccc1[N+](=O)[O-] [Example 3] | –
– | NC(=O)c1cccc(N)c1 [3-aminobenzamide] | protective effects in a model for circulatory shock (circulatory shock): protective effects
115 | CCN(CC)CCN(C)c1ccc(-c2nc3c(C(N)=O)cccc3[nH]2)cc1 [Example 1] | –
119 | CN(C)CCN(C)c1ccc(-c2nc3c(C(N)=O)cccc3[nH]2)cc1 [Example 2] | –
